In patent publication US20140271885A1, “COPOLYMERS FOR STABLE MICELLE FORMULATIONS” (Intezyne Technologies, Inc., priority 2013, published 2014):

Conditions: rat, in vivo, iv, 10 mg/kg
Experimental: The delivery vehicle for drug administration was isotonic saline. Rat blood was collected from the catheter into K2-EDTA tubes […] at time points of 1, minute, 5 minutes, 15 minutes, 1 hour, 4 hours, 8 hours and 24 hours. Plasma was isolated by centrifugation at 1000 RPM for 5 minutes, and 150 uL of extraction solution (ice cold methanol/100 ng/mL daunorubicin internal standard) was added to 50 uL of each plasma sample. Samples were then vortexed for 10 minutes, centrifuged at 13,000 RPM for 10 minutes, and 150 uL of the supernatant is transferred to HPLC vials for analysis. […] A 5 μL sample injection was made onto a Waters 4 μm Nova Pak C18 (3.9×150 mm) at 30° C. with a flow rate of 0.750 mL per minute of 10 mM phosphate buffer (pH=1.4), methanol and acetonitrile (gradient from 70/10/20 to 40/10/50 for buffer/methanol/acetonitrile was made over eight minutes).

AUC (area under the concentration versus time curve, exposure of daunorubicin to the plasma compartment): 1300 ng·h/mL
Half-life (terminal, elimination): 3.3 h
Structure (SMILES): COc1cccc2c1C(=O)c1c(O)c3c(c(O)c1C2=O)C[C@@](O)(C(C)=O)C[C@@H]3O[C@H]1C[C@H](N)[C@H](O)[C@H](C)O1 [Free Daunorubicin, daunorubicin]
